Results as given in publication PMC8805605, “Discovery of Dimeric Arylsulfonamides as Potent ADAM8 Inhibitors” (ACS Medicinal Chemistry Letters, 2021).

Biological target: T1, MMP-2 (Homo sapiens, UniProt P08253)
T1 construct: purchased Calbiochem (Merck-Millipore)
T1 sequence (P08253 110-660): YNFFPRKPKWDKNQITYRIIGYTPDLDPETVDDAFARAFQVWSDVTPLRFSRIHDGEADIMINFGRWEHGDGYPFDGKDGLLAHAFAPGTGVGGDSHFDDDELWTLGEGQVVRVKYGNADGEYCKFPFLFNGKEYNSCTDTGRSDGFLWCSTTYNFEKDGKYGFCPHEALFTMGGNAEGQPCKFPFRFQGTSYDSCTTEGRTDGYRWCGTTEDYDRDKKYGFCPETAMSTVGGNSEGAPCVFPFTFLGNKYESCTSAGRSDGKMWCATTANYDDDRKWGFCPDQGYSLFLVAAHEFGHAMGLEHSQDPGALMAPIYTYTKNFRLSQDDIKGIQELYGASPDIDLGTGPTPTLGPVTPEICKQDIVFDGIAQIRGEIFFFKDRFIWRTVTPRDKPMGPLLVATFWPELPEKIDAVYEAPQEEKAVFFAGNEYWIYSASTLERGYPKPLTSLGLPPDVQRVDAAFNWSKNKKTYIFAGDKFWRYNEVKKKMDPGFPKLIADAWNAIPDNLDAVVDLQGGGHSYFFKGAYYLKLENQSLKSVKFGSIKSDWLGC
Assay: MMP-2 fluorometric inhibition assay
Format: biochemical
Conditions: mean of three independent experiments in duplicate, read-out: In vitro inhibitory activity IC50 on MMP-2
Description: The newly synthesized bivalent derivatives 1–3 were then tested in vitro on human recombinant ADAM8 in comparison with JG26 by a fluorometric assay. The inhibitory activity against a panel of MMPs and ADAM10/17 was determined as well to assess their selectivity profile. […]
VI. Biological Activity on Isolated Enzymes
MMP and ADAM10 inhibition assays.
Recombinant human MMP-14 catalytic domain was a kind gift of Prof. Gillian Murphy (Department of […]
Oncology, University of Cambridge, UK). Pro-MMP-1, pro-MMP-2, and pro-MMP-9, were purchased […]
from Calbiochem (Merck-Millipore). Pro-MMP-12 and ADAM10 were purchased from R&D Systems.
Proenzymes were activated immediately prior to use with p-aminophenylmercuric acetate (APMA 2 […]
mM for 1 h at 37°C for MMP-2 and MMP-1, 1 mM for 1 h at 37°C for MMP-9). Pro-MMP-12 was […]
auto activated by incubating in the fluorometric assay buffer (FAB: Tris 50 mM, pH = 7.5, NaCl 150 […]
mM, CaCl2 10 mM, Brij 35 0.05% and DMSO 1%) for 30 h at 37°C. For assay measurements, each […]
inhibitor stock solution (DMSO, 10 mM) was further diluted in FAB at seven different concentrations.
Activated enzyme (final concentration 0.56 nM for MMP-2, 1.3 nM for MMP-9, 1.0 nM for MMP- […]
14cd, 2.0 nM for MMP-1, 2.3 nM for MMP-12 and 20 nM for ADAM10) and inhibitor solutions were […]
incubated in the assay buffer for 3 h at 25 °C. ADAM10 was incubated for 1 h at 37°C in a different […]
buffer at pH 9 (Tris 25 mM, ZnCl2 25 µM, Brij-35 0.005 %). After the addition of 200 µM solution of […]
the fluorogenic substrate Mca-Lys-Pro-Leu-Gly-Leu-Dap(Dnp)-Ala-Arg-NH2 (Bachem) for all the […]
enzymes in DMSO (final concentration 2 µM for all enzymes, 10 µM for ADAM10), the hydrolysis […]
was monitored every 10 sec. for 15 min. recording the increase in fluorescence (λ ex = 325 nm, λ em = […]
400 nm) using a Molecular Devices SpectraMax Gemini XPS plate reader. The assays were performed […]
in triplicate in a total volume of 200 μL per well in 96-well microtitre plates (Corning, black, NBS).
Control wells lack inhibitor. The MMP inhibition activity was expressed in relative fluorescent units […]
(RFU). Percent of inhibition was calculated from control reactions without the inhibitor. IC50 was determined using the formula: v i/v o = 1/(1 + [I]/ IC50), where v i is the initial velocity of substrate cleavage in the presence of the inhibitor at concentration [I] and v o is the initial velocity in the absence of the inhibitor. Results were analyzed using SoftMax Pro software (version 5.4.3, Molecular Devices, Sunnyvale, CA) and Prism Software version 5.0 (GraphPad Software, Inc., La Jolla, CA, USA).
ADAM8 and ADAM17 inhibition assays […]

| SMILES | IC50 |
| --- | --- |
| O=C(NCCC[C@@H](NS(=O)(=O)c1ccc(OCc2cc(Br)cc(Br)c2)cc1)C(=O)NO)NCCC[C@@H](NS(=O)(=O)c1ccc(OCc2cc(Br)cc(Br)c2)cc1)C(=O)NO [Compound 3] | 0.9 µM |
| NC(=O)NCCC[C@@H](NS(=O)(=O)c1ccc(OCc2cc(Br)cc(Br)c2)cc1)C(=O)NO [JG26, reference compound] | 0.24 µM |
| O=C(NCCC[C@@H](NS(=O)(=O)c1ccc(OCc2cc(Br)cc(Br)c2)cc1)C(=O)NO)c1cccc(C(=O)NCCC[C@@H](NS(=O)(=O)c2ccc(OCc3cc(Br)cc(Br)c3)cc2)C(=O)NO)c1 [Compound 2] | 3 µM |
| O=C(CCCNC(=O)c1cccc(C(=O)NCCCC(=O)NCCC[C@@H](NS(=O)(=O)c2ccc(OCc3cc(Br)cc(Br)c3)cc2)C(=O)NO)c1)NCCC[C@@H](NS(=O)(=O)c1ccc(OCc2cc(Br)cc(Br)c2)cc1)C(=O)NO [Compound 1] | 4.66 µM |
